Assay results from US9440980B2, “Remedy for diabetes” (EA Pharma Co., Ltd., priority 2007, dated 2016).
pEC50: −log10 of the molar value.

Tests used:
[1] = system: isolated adipocytes; assay: Measurement of glucose uptake activity in isolated rat adipocytes (2-[14C]-deoxy-D-glucose); format: cell-based; conditions: Adipocyte, glucose uptake of insulin (100 nM) = 100%
Method: A male Wistar rat was decapitated and exsanguinated, and then a paratesticular adipose tissue was resected therefrom after laparotomy. The tissue was cut in a KRH (Krebs-Ringer HEPES: 130 mM NaCl, 4.7 mM KCl, 1.2 mM KH2PO4, 1.2 mM MgSO4, 1 mM CaCl2, 25 mM HEPES) containing a BSA (bovine serum albumin), a collagenase (type I) was added thereto, and the resultant was subjected to a digestive treatment for about 40 minutes to obtain isolated adipocytes. The buffer was replaced to remove the collagenase, and a 2% BSA/KRH solution was added thereto, whereby the adipocytes were floated again to obtain a adipocytes suspension.
The glucose uptake activity of a test substance compound was evaluated in accordance with Non-Patent Document 14: Simpson et al., Annual Review of Biochemistry, 55, 1059, (1986). Thus, 200 μl of the adipocytes suspension was dispensed into each polystyrene test tube, 100 μl of a solution containing the test substance compound was added thereto, and the test tube was shaken and incubated at 37° C. for 30 minutes. The glucose uptake activity was evaluated by measuring the amount of 2-[^14C(U)]-deoxy-D-glucose uptaken per unit time. Thus, the 2-[^14C(U)]-deoxy-D-glucose was added to the preincubated adipocytes suspension at the final concentration of 0.5 μCi/sample, and after 5 minutes, cytochalasin B was added thereto at the final concentration of 10 μM to stop the glucose uptake. Dinonyl phthalate was superposed over the solution, the resultant was centrifuged to separate the fat cells from the buffer, and the amount of the 2-[^14C(U)]-deoxy-D-glucose contained in the fat cell layer was measured by a liquid scintillation counter, whereby the uptaken glucose amount was determined. The glucose uptake of insulin (100 nM) was evaluated in the same manner and considered to be 100%, and thus the EC50 value of each compound was obtained.

[2] = biological target: T1, Gβ1γ2-Myc (Homo sapiens, UniProt P62873); assay: Gβ binding ability using Gβ-expressing insect cell extract solution (PD10 method); conditions: binding strength Compound 1>Compound 3>Compound 6, FIG. 8
T1 construct: made in house; host or cells: Sf21 insect cells (baculovirus), unpurified Triton X-100 extract
Method: The PD10 method was carried out as follows. To a microtube were added 250 μl of an RBA buffer, 100 μl of an RBA buffer containing 0 or 500 μM of the unlabeled Compound 1, 100 μl of the above extract solution, and 50 μl of an RBA buffer containing 2.5 μM of the ^3H-labeled Compound 1 successively, and the resultant mixture was stirred and left at room temperature for 1 hour. The entire reaction solution (0.5 ml) was added to a PD10 column sufficiently substituted with the RBA buffer, 2 ml of the RBA buffer was passed through the PD10 column, and thereafter further eluate by 1.5 ml of the RBA buffer was collected as a high-molecular fraction containing the protein, 15 ml of a liquid scintillator was added thereto, and the amount of the ^3H-labeled Compound 1 contained in the high-molecular fraction was measured by a scintillation counter. The count of the sample added with the unlabeled Compound 1 at the final concentration of 100 μM was considered to correspond to the nonspecific binding, the difference between the nonspecific binding count and the count of the sample not added with the unlabeled Compound 1 was considered to correspond to the specific binding, and thus the amount of the binding protein contained in the extract solution was evaluated.
Using the frozen insect cell Sf21 expressing the Gβ1, Myc-Gγ2, and Gαi1-His prepared in Example 19 (8), 10^7 cells were melted and suspended in 1.3 ml of an RBA buffer containing 1% Triton X-100 (75 mM Tris-HCl, 12.5 mM MgCl2, 2 mM EDTA, pH 7.4). […]
The inhibitory activity against the binding of the ^3H-labeled Compound 1 to the Gβ1γ2-Myc was considered to correspond to the activity of the compounds for binding to the Gβ1γ2-Myc. Thus, the activity of each of Compounds 1, 3, and 6 for binding to the Gβ1γ2-Myc was measured using the above extract solution. The activity of the ^3H-labeled Compound 1 for binding to the protein contained in the extract solution was measured by the PD10 method described in Example 15 (1). […]

[3] = system: PI3-kinase β (p110β/p85α); assay: PI3-kinase subtype activity with or without Gβ1γ2-Myc (PIP3 production, 32P-ATP, TLC); format: biochemical
Method: The subtypes α (PI3 Kinase (p110α/p85α), active, Upstate, Product No. 14-602), β (PI3 Kinase (p110β/p85α), active, Upstate, Product No. 14-603), γ ((PI3KγHis-GST (Phosphoinositide 3-kinase p110γHis/p101GST) human, Recombinant, Sf9 insect cell, JENA Bioscience, Product No. PR-347S), and δ (PI3 Kinase (p110δ/p85α), active, Upstate, Product No. 14-604) were used as the PI3-kinase subtypes respectively. A PI3K buffer (40 mM HEPES-Na (pH 7.4), 120 mM NaCl, 1 mM EGTA, 1 mM dithiothreitol, 1 mM β glycerophosphoric acid, 10 mM MgCl2, 0.1% BSA) was used as a buffer in the following reactions.
To the lipid micelle solution (125 μl) was added the purified Gβ1γ2-Myc solution (250 μl, 10 μg/ml) obtained in (1), and the resultant solution was stirred and left in ice for 10 minutes. 30 μl of the lipid micelle solution containing the Gβγ2-Myc was dispensed into 1.5-ml microtubes, and to these were added 5 μl of a compound solution and 5 μl of each PI3-kinase subtype (α, β, and δ: 5 μg/ml, γ: 2.5 μg/ml) successively. The mixture was left at room temperature for 10 minutes, and a 40-μM ATP solution (10 μl) containing ^32P-γ-ATP was added thereto, to initiate a reaction. The amount of the ^32P-γ-ATP added was about 300 kBq per one reaction. The reaction was carried out at room temperature for 30 minutes, and stopped by adding 80 μl of 1N HCl at ice temperature. 300 μl of a chloroform:methanol (1:1) solution was added thereto, the mixture was stirred to extract the lipid, and the organic layer was washed with 80 μl of 1N HCl twice. The solvent was removed from the residual organic layer under reduced pressure, the residue was dissolved in 20 μl of a chloroform:methanol (4:1) solution, the entire solution was spotted on a TLC plate (Merck, Kieselgel 60), and a TLC was carried out for about 4 hours using a developer of acetic acid:water:1-propanol (4:31:65). The TLC plate was treated with oxalic acid beforehand such that the plate was sufficiently developed by a 40% methanol solution containing 1% of potassium oxalate, dried overnight, and activated at 110° C. for 30 minutes. After the developing, the TLC plate was sufficiently dried and exposed using an imaging plate, and data were obtained by BAS2000 (FUJIFILM Corporation). The data were analyzed by a software of BAS2000, the analysis region was controlled such that spots of phosphatidylinositol-[3,4,5]-trisphosphate (PIP3) in the TLC lanes have the same areas, and the energy (PSL) corresponding to each radioactivity was quantified in the region.
A lipid micelle solution was prepared in the same manner as (2). […] The reaction was carried out at room temperature for 15 minutes, the resultant was treated in the same manner as (2), and the amount of the produced PIP3 was measured.

[4] = biological target: T2, PI3-kinase β in the presence of Gβ1γ2-His (Homo sapiens, UniProt P42338+P62873); assay: PI3-kinase β activation assay in the presence of Gβ1γ2-His (scintillation counting); format: biochemical; conditions: FIG. 17
T2 construct: purchased Upstate 14-603
Method: A lipid micelle solution was prepared in accordance with a method described in Example 24 (2), to this was added the Gβ1γ2-His prepared in (1) at a concentration of 13.3 μg/ml, and the mixture was left on ice for 10 minutes. To 30 μl of the resultant solution were added 5 μl of a solution containing Compound 1 or 6 and 5 μl of a PI3-kinase β solution (5 μg/ml) successively. A 40 μM ATP solution (10 μl) containing ^32P-γ-ATP was added thereto, and a reaction was carried out at room temperature for 2 hours. The reaction was stopped by addition of 80 μl of 1N HCl, and the lipid was extracted with 300 μl of chloroform:methanol (1:1). The organic layer was washed with 80 μl of 1N HCl twice, 10 ml of a liquid scintillator (Hionic Fluor) was added thereto, and the […] was measured by a liquid scintillation counter.

T2 sequence (P42338 whole entry): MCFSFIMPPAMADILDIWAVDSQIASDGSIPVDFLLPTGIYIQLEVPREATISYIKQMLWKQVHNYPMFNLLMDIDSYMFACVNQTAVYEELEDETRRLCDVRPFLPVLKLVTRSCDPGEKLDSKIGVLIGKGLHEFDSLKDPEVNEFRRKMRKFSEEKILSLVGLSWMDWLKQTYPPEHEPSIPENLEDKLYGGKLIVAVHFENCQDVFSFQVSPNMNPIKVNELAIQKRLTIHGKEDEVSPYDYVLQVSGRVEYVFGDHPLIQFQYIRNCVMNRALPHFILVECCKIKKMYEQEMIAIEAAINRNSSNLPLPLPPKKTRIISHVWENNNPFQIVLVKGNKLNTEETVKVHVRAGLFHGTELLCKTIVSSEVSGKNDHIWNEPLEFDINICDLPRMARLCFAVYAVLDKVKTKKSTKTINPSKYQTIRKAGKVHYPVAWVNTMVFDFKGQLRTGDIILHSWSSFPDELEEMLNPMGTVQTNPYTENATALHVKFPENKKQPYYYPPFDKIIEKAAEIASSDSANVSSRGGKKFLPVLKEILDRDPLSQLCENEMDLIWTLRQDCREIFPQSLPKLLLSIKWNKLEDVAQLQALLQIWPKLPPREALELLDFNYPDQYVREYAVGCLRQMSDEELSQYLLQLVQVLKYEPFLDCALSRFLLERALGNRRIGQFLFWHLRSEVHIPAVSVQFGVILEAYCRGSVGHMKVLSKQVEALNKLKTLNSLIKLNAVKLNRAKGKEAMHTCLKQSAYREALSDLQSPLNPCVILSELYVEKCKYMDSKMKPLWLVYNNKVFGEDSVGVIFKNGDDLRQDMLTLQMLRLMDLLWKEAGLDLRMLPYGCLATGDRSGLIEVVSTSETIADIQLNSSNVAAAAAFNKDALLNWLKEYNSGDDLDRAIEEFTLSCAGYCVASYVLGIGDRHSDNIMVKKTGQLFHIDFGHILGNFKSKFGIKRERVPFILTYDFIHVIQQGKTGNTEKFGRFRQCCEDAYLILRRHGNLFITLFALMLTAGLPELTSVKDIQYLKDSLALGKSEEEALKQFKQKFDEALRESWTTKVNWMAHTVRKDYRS
T2 sequence (P27986 whole entry partner): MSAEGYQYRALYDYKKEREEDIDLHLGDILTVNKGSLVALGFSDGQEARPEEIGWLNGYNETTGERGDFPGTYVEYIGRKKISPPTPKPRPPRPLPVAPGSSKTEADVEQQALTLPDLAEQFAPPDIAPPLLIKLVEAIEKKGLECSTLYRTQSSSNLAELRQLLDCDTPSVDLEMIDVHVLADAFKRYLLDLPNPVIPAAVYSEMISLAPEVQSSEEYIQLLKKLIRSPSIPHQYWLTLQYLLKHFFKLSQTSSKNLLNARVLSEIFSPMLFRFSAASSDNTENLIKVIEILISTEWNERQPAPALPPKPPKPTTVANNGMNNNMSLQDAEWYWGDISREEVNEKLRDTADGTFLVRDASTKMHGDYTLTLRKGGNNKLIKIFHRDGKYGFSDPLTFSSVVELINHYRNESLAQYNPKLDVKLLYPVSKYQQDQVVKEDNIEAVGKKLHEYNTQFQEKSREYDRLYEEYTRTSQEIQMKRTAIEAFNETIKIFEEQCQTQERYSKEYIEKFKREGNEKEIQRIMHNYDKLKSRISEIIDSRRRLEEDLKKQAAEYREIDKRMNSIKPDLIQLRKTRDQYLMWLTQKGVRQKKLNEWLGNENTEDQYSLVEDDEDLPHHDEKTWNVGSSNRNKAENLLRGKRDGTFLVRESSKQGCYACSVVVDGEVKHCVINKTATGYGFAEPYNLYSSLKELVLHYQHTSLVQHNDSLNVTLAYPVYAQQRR
T2 sequence (P62873 whole entry): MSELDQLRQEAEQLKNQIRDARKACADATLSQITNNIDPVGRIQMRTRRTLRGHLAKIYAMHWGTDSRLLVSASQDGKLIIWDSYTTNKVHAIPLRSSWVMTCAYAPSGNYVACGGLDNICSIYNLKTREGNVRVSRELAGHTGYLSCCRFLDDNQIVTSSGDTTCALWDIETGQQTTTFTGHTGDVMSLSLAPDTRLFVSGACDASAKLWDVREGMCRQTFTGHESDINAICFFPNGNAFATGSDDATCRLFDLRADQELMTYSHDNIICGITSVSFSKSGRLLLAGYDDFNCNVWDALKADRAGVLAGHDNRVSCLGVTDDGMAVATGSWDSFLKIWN
T2 sequence (P59768 with tags, fused parts or gaps partner limits assumed): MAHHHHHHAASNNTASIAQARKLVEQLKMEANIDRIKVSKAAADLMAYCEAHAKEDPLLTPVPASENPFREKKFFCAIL
T1 sequence (P62873 whole entry): as the sequence (P62873 whole entry) above
T1 sequence (P59768 with tags, fused parts or gaps partner limits assumed): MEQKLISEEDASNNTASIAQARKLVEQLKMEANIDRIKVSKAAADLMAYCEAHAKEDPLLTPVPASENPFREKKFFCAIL

pEC50 [1]	binding to Gβ1γ2-Myc (inhibition of 3H-labeled Compound 1 binding) [2]	effect on PI3-kinase β activity ([3]; absence of the Gβ (Gβ1γ2-Myc), FIG. 14)	PI3-kinase activity compared with the case without compound ([4]; 0.1 μM, 10 μM)	PI3-kinase activity compared with the case without compound ([4]; 100 μM)	Structure (SMILES)	effect on PI3-kinase β activity ([3]; 30 μM, presence of Gβ1γ2-Myc, FIG. 13)	effect of enhancing the enzymatic activity of the PI3-kinase β ([3]; presence of Gβ1γ2-Myc, concentration-dependent, 0.1, 1, and 10 μM, FIG. 14)	effect of enhancing the enzymatic activity of the PI3-kinase β ([3]; presence of Gβ1γ2-Myc, concentration-dependent, 100 μM and 1 mM, FIG. 14)
8.10	could be bound to the Gβγ2-Myc	no effects	clearly increased	–	O=C1NCC2=C1[C@@H](c1cccc3ccsc13)N(C(=O)CCc1ccccn1)[C@@H]1CCCC[C@H]1N2 [Compound 1]	significant activating effect only on the PI3-kinase β	significant effect of enhancing the enzymatic activity	–
5.40	could be bound to the Gβγ2-Myc	–	–	clearly increased	O=C1NCC2=C1[C@@H](c1ccccc1)N(C(=O)CO)[C@@H]1CCCC[C@H]1N2 [Compound 6]	–	–	significant effect of enhancing the enzymatic activity
